For the first assay, the target named is T1, human PTH1 receptor (Homo sapiens, UniProt Q03431).
T1 sequence (Q03431 27-593): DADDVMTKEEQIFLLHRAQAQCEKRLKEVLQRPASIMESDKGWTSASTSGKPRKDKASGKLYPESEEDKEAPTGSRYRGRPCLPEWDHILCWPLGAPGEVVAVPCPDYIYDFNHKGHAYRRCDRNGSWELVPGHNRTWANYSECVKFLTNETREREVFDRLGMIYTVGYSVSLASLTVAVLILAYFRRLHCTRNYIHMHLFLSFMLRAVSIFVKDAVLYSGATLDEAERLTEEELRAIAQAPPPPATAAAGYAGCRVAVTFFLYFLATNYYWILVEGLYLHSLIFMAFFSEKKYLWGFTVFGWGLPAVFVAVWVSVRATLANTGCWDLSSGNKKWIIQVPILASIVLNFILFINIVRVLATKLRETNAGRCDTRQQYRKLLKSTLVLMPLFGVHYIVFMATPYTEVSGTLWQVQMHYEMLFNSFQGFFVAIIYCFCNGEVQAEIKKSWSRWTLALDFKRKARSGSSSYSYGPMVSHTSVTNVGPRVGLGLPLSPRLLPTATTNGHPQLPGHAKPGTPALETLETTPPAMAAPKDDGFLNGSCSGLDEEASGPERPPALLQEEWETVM
Nature of the assay: In vitro cAMP signal activity in HKRK-B7 cells (LLC-PK1 cells overexpressing the human PTH1 receptor). The format is cell-based. The conditions noted are these: 0.1 µM.
Consider `Cc1cc(N(C)C(N)=O)cc(C)c1CCS(=O)(=O)N1CCC2(CC1)N=C(C1CCC([Si](C)(C)C)CC1)NC2=O` (centres unmarked) [Compound 1137, 1-(3,5-Dimethyl-4-{2-[4-oxo-2-(4-trimethylsilanyl-cyclohexyl)-1,3,8-triaza-spiro[4.5]dec-1-ene-8-sulfonyl]-ethyl}-phenyl)-1-methyl-urea], for which the “cAMP production activity (%)” value stood at 82%.

As to `Cc1cc(N(C)C(N)=O)cc(C)c1CC[S@TB4](=O)(=O)N1CCC2(CC1)N=C(c1ccc([Si](C)(C)C)cc1)NC2=O` [Compound 1139, 1-(3,5-dimethyl-4-{2-[4-oxo-2-(4-trimethylsilanyl-phenyl)-1,3,8-triaza-spiro[4.5]dec-1-ene-8-sulfonyl]-ethyl}-phenyl)-1-methyl-urea], the “cAMP production activity (%)” value was determined as 86%.

The same assay, now with this note: HKRK-B7 cells; compound at 1×10^−3 M; cAMP produced as percentage of that produced by hPTH(1-34) at 100 nM.
In the case of `Cc1cc(N(C)C(N)=O)cc(C)c1/C=C/[S@TB3](=O)(=O)N1CCC2(CC1)N=C(c1ccc(CCCCCC(F)(F)F)cc1)NC2=O` [Compound 1117, 1-[3,5-dimethyl-4-((E)-2-{4-oxo-2-[4-(6,6,6-trifluoro-hexyl)-phenyl]-1,3,8-triaza-spiro[4.5]dec-1-ene-8-sulfonyl}-vinyl)-phenyl]-1-methyl-urea], the “cAMP production activity (%)” value turned out to be 88%. Turning to `Cc1cc(N(C)C(N)=O)cc(C)c1/C=C/[S@TB4](=O)(=O)N1CCC2(CC1)N=C(CCCCCCCCCCCF)NC2=O` [Compound 1118, 1-(4-{(E)-2-[2-(11-fluoro-undecyl)-4-oxo-1,3,8-triaza-spiro[4.5]dec-1-ene-8-sulfonyl]-vinyl}-3,5-dimethyl-phenyl)-1-methyl-urea], the “cAMP production activity (%)” value came to 79%.

For the molecule `C=CCCCCC1=NC2(CCN([S@TB17](=O)(=O)/C=C/c3c(C)cc(N(C)C(N)=O)cc3C)CC2)C(=O)N1` [Compound 1119, 1-{4-[(E)-2-(2-hex-5-enyl-4-oxo-1,3,8-triaza-spiro[4.5]dec-1-ene-8-sulfonyl)-vinyl]-3,5-dimethyl-phenyl}-1-methyl-urea], the “cAMP production activity (%)” value came out at 136%. Consider `Cc1cc(N(C)C(N)=O)cc(C)c1/C=C/[S@TB3](=O)(=O)N1CCC2(CC1)N=C(CCCC/C=C/c1ccccc1)NC2=O` [Compound 1120, 1-(3,5-dimethyl-4-{(E)-2-[4-oxo-2-((E)-6-phenyl-hex-5-enyl)-1,3,8-triaza-spiro[4.5]dec-1-ene-8-sulfonyl]-vinyl}-phenyl)-1-methyl-urea], for which the “cAMP production activity (%)” value worked out at 124%. As for `Cc1cc(N(C)C(N)=O)cc(C)c1/C=C/[S@TB3](=O)(=O)N1CCC2(CC1)N=C(CCCCCCC/C=C/c1ccccc1)NC2=O` [Compound 1121, 1-(3,5-dimethyl-4-{(E)-2-[4-oxo-2-((E)-9-phenyl-non-8-enyl)-1,3,8-triaza-spiro[4.5]dec-1-ene-8-sulfonyl]-vinyl}-phenyl)-1-methyl-urea], the “cAMP production activity (%)” value was determined as 118%.

Turning to `CCCSCCCCCC1=NC2(CCN([S@TB17](=O)(=O)/C=C/c3c(C)cc(N(C)C(N)=O)cc3C)CC2)C(=O)N1` [Compound 1122, 1-(3,5-dimethyl-4-{(E)-2-[4-oxo-2-(5-propylsulfanyl-pentyl)-1,3,8-triaza-spiro[4.5]dec-1-ene-8-sulfonyl]-vinyl}-phenyl)-1-methyl-urea], the “cAMP production activity (%)” value came out at 150%. On to `COCCCCCCCC1=NC2(CCN([S@TB18](=O)(=O)/C=C/c3c(C)cc(N(C)C(N)=O)cc3C)CC2)C(=O)N1` [Compound 1123, 1-(4-{(E)-2-[2-(7-methoxy-heptyl)-4-oxo-1,3,8-triaza-spiro[4.5]dec-1-ene-8-sulfonyl]-vinyl}-3,5-dimethyl-phenyl)-1-methyl-urea], for which the “cAMP production activity (%)” value is 122%. With `CCCOCCCCCC1=NC2(CCN([S@TB18](=O)(=O)/C=C/c3c(C)cc(N(C)C(N)=O)cc3C)CC2)C(=O)N1` [Compound 1124, 1-(3,5-dimethyl-4-{(E)-2-[4-oxo-2-(5-propoxy-pentyl)-1,3,8-triaza-spiro[4.5]dec-1-ene-8-sulfonyl]-vinyl}-phenyl)-1-methyl-urea], the “cAMP production activity (%)” value is reported as 119%. On to `Cc1cc(N(C)C(N)=O)cc(C)c1/C=C/[S@TB4](=O)(=O)N1CCC2(CC1)N=C(CCCCCCCCCCC(F)F)NC2=O` [Compound 1125, 1-(4-{(E)-2-[2-(11,11-difluoro-undecyl)-4-oxo-1,3,8-triaza-spiro[4.5]dec-1-ene-8-sulfonyl]-vinyl}-3,5-dimethyl-phenyl)-1-methyl-urea], for which the “cAMP production activity (%)” value was 93%. Turning to `CCCCCCC(CCC)CCC1=NC2(CCN([S@TB18](=O)(=O)/C=C/c3c(C)cc(N(C)C(N)=O)cc3C)CC2)C(=O)N1` (centres unmarked) [Compound 1126, 1-(3,5-dimethyl-4-{(E)-2-[4-oxo-2-(3-propyl-nonyl)-1,3,8-triaza-spiro[4.5]dec-1-ene-8-sulfonyl]-vinyl}-phenyl)-1-methyl-urea], the “cAMP production activity (%)” value is 106%. On the same count and under the same terms, under `CCCc1cc2ccc(C3=NC4(CCN([S@TB18](=O)(=O)/C=C/c5c(C)cc(N(C)C(N)=O)cc5C)CC4)C(=O)N3)cc2o1` [Compound 1127, 1-(3,5-dimethyl-4-{(E)-2-[4-oxo-2-(2-propyl-benzofuran-6-yl)-1,3,8-triaza-spiro[4.5]dec-1-ene-8-sulfonyl]-vinyl}-phenyl)-1-methyl-urea] stands 91%. On the same count and under the same terms, under `CCCCCc1ccc(C2=NC3(CCN([S@TB18](=O)(=O)/C=C/c4c(C)cc(N(C)C(N)=O)cc4C)CC3)C(=O)N2)cc1OC` [Compound 1128, 1-(4-{(E)-2-[2-(3-methoxy-4-pentyl-phenyl)-4-oxo-1,3,8-triaza-spiro[4.5]dec-1-ene-8-sulfonyl]-vinyl}-3,5-dimethyl-phenyl)-1-methyl-urea] stands 119%. With `[2H]C([2H])([2H])C([2H])([2H])C1=CC[C@H](C2=NC3(CCN([S@TB18](=O)(=O)/C=C/c4c(C)cc(N(C)C(N)=O)cc4C)CC3)C(=O)N2)CC1` [Compound 1129, 1-(4-{(E)-2-[2-(4-[1,1,2,2,2-^2H5]ethyl-cyclohex-3-enyl)-4-oxo-1,3,8-triaza-spiro[4.5]dec-1-ene-8-sulfonyl]-vinyl}-3,5-dimethyl-phenyl)-1-methyl-urea], the “cAMP production activity (%)” value was determined as 102%. Take `Cc1cc(N(C)C(N)=O)cc(C)c1/C=C/S(=O)(=O)N1CCC2(CC1)N=C(CCCCCCCCCCCC(=O)O)NC2=O` [Compound 1131, 12-(8-{(E)-2-[2,6-Dimethyl-4-(1-methyl-ureido)-phenyl]-ethenesulfonyl}-4-oxo-1,3,8-triaza-spiro[4.5]dec-1-en-2-yl)-dodecanoic acid]: the “cAMP production activity (%)” value came out at 96%. Still for that read-out and setting: under `CCOC(=O)CCCCCCCCCCCC1=NC2(CCN(S(=O)(=O)/C=C/c3c(C)cc(N(C)C(N)=O)cc3C)CC2)C(=O)N1` [Compound 1132, 12-(8-{(E)-2-[2,6-dimethyl-4-(1-methyl-ureido)-phenyl]-ethenesulfonyl}-4-oxo-1,3,8-triaza-spiro[4.5]dec-1-en-2-yl)-dodecanoic acid ethyl ester] stands 80%. Still for that read-out and setting: as for `Cc1cc(N(C)C(N)=O)cc(C)c1/C=C/S(=O)(=O)N1CCC2(CC1)N=C(CCCCCc1ccccc1)NC2=O.O=C(O)C(F)(F)F` [Compound 1133, 1-(3,5-Dimethyl-4-{(E)-2-[4-oxo-2-(5-phenyl-pentyl)-1,3,8-triaza-spiro[4.5]dec-1-ene-8-sulfonyl]-vinyl}-phenyl)-1-methyl-urea trifluoroacetate], the figure is 113%; as for `Cc1cc(N(C)C(N)=O)cc(C)c1/C=C\S(=O)(=O)N1CCC2(CC1)N=C(CCCCCc1ccccc1)NC2=O.O=C(O)C(F)(F)F` [Compound 1134, 1-(3,5-dimethyl-4-{(Z)-2-[4-oxo-2-(5-phenyl-pentyl)-1,3,8-triaza-spiro[4.5]dec-1-ene-8-sulfonyl]-vinyl}-phenyl)-1-methyl-urea trifluoroacetate], 50%; as for `Cc1cc(N(C)C(N)=O)cc(C)c1CCS(=O)(=O)N1CCC2(CC1)N=C(c1cccc(OCCCC(F)(F)C(F)(F)F)c1)NC2=O` [Compound 1135, 1-[3,5-Dimethyl-4-(2-{4-oxo-2-[3-(4,4,5,5,5-pentafluoro-pentyloxy)-phenyl]-1,3,8-triaza-spiro[4.5]dec-1-ene-8-sulfonyl}-ethyl)-phenyl]-1-methyl-urea], 84%. On to `CCCc1cccc(-c2cccc(C3=NC4(CCN(S(=O)(=O)CCc5c(C)cc(N(C)C(N)=O)cc5C)CC4)C(=O)N3)c2)c1` [Compound 1136, 1-(3,5-Dimethyl-4-{2-[4-oxo-2-(3′-propyl-biphenyl-3-yl)-1,3,8-triaza-spiro[4.5]dec-1-ene-8-sulfonyl]-ethyl}-phenyl)-1-methyl-urea], for which the “cAMP production activity (%)” value is listed as 112%.

As to `Cc1cc(N(C)C(N)=O)cc(C)c1CC[S@TB3](=O)(=O)N1CCC2(CC1)N=C(C1CC(C(F)(F)F)CC(C(F)(F)F)C1)NC2=O` [Compound 1138, 1-(4-{2-[2-((1R,3R,5S)-3,5-bis-trifluoromethyl-cyclohexyl)-4-oxo-1,3,8-triaza-spiro[4.5]dec-1-ene-8-sulfonyl]-ethyl}-3,5-dimethyl-phenyl)-1-methyl-urea], the “cAMP production activity (%)” value worked out at 77%. As for `CCCCCCCCCCCCCC1=NC2(CCN([S@TB18](=O)(=O)CCc3c(C)cc(N(C)C(N)=O)cc3C)CC2)C(=O)N1` [Compound 1140, 1-{3,5-dimethyl-4-[2-(4-oxo-2-tridecyl-1,3,8-triaza-spiro[4.5]dec-1-ene-8-sulfonyl)-ethyl]-phenyl}-1-methyl-urea], the “cAMP production activity (%)” value is listed as 55%.

Source of the values: US9169254B2, “Spiroimidazolone derivative” (Chugai Seiyaku Kabushiki Kaisha, priority 2009, dated 2015).
